These compounds were tested against T1, TRPV1 human (Homo sapiens, UniProt Q8NER1) (assay: Functional testing on the vanilloid receptor 1 (VR1/TRPV1): FLIPR Ca2+ influx assay, inhibition of capsaicin (CAP) stimulation). Conditions: @ 1 µM compound; capsaicin (CAP) stimulus; relative to maximum achievable inhibition with 10 µM capsazepine; read-out: TRPV1 human (f) CAP, inhibition (in %).
T1 construct: expressed in transfected cells; host or cells: CHO K1 cells
Format: cell-based
Protocol: Furthermore, preference may be given to compounds according to the invention that cause a 50 per cent displacement of capsaicin, which is present at a concentration of 100 nM, in a FLIPR assay with CHO K1 cells which were transfected with the human VR1 gene at a concentration of less than 6,000 nM, preferably less than 5,000 nM, more preferably less that 3,000 nM or less than 1,000 nM and particularly preferably less than 300 nM, most particularly preferably less than 100 nM, even more preferably less than 75 nM, additionally preferably less than 50 nM, most preferably less than 10 nM.
In the process, the Ca^2+ influx is quantified in the FLIPR assay with the aid of a Ca^2+-sensitive dye (type Fluo-4, Molecular Probes Europe BV, Leiden, the Netherlands) in a fluorescent imaging plate reader (FLIPR, Molecular Devices, Sunnyvale, USA), as described hereinafter.
Functional testing carried out on the vanilloid receptor 1 (VRI/TRPV1 receptor) […]
The number of cells in the suspension is set to 3 x 10^5 per mL and 150 µL of this suspension are in each case introduced into a recess in the cell culture plates coated as described hereinbefore. In the incubator the plates are left for two to three days at 37°C, 5 vol.-% of CO2 and 95 % relative humidity. Subsequently, the cells are loaded with 2 µM of Fluo-4 and 0.01 vol.-% of Pluronic F127 (Molecular Probes Europe BV, Leiden, the Netherlands) in HBSS buffer for 30 min at 37°C, washed 3 times with HBSS buffer and after further incubation for 15 min at RT used for Ca^2+ measurement in a FLIPR assay. The Ca^2+-dependent fluorescence is in this case measured before and after the addition of substances (λex = 488 nm, λem = 540 nm). Quantification is carried out by measuring the highest fluorescence intensity (FC, fluorescence counts) over time.
The FLIPR protocol consists of 2 substance additions. First the compounds to be tested (10 µM) are pipetted onto the cells and the Ca^2+ influx is compared with the control (capsaicin 10 µM). This provides the result in % activation based on the Ca^2+ signal after the addition of 10 µM of capsaicin (CP). After 5 min incubation, 100 nM of capsaicin are applied and the Ca^2+ influx is also determined. Desensitising agonists and antagonists lead to suppression of the Ca^2+ influx. The % inhibition is calculated compared to the maximum achievable inhibition with 10 µM of capsazepine.
Triple analyses (n=3) are carried out and repeated in at least 3 independent experiments (N=4). Starting from the percentage displacement caused by different concentrations of the compounds to be tested of general formula I, IC50 inhibitory concentrations which cause a 50% displacement of capsaicin were calculated.
Ki values for the test substances were obtained by conversion by means of the Cheng-Prusoff equation (Cheng, Prusoff; Biochem. Pharmacol. 22, 3099-3108, 1973).

T1 sequence (Q8NER1 whole entry): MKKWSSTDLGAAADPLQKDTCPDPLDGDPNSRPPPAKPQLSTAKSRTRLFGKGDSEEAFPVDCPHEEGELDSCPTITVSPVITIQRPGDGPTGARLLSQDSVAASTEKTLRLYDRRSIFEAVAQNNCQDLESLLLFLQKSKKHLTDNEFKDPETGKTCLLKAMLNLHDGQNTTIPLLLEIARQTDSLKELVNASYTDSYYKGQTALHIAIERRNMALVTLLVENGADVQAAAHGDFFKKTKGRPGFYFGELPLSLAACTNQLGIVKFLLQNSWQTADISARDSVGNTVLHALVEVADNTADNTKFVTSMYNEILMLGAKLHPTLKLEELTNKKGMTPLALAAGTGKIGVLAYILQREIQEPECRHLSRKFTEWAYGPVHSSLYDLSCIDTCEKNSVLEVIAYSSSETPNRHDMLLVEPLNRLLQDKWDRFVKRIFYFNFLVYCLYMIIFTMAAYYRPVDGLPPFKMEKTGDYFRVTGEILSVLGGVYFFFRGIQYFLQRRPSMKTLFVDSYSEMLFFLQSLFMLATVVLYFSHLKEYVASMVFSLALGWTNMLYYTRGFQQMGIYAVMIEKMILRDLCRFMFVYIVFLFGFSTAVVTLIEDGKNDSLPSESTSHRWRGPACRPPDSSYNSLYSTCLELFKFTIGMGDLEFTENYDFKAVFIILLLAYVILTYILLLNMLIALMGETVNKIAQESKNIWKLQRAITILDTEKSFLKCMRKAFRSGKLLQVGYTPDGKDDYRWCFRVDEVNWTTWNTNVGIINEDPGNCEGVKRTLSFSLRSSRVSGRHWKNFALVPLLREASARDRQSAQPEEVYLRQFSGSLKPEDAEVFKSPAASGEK

With `CCNc1nc(C(F)(F)F)ccc1CNC(=O)Cc1cn(C)c2ccc(OC)cc12` [example compound 17, N-((2-(ethylamino)-6-(trifluoromethyl)pyridin-3-yl)methyl)-2-(5-methoxy-1-methyl-1H-indol-3-yl)acetamide] the inhibition at 1 µM was 0%.

Same assay, conditions: @ 5 µM compound; capsaicin (CAP) stimulus; relative to maximum achievable inhibition with 10 µM capsazepine; read-out: TRPV1 human (f) CAP, inhibition (in %)

Going from `CCNc1nc(C(F)(F)F)ccc1CNC(=O)Cc1cn(C)c2ccc(OC)cc12` [example compound 17, N-((2-(ethylamino)-6-(trifluoromethyl)pyridin-3-yl)methyl)-2-(5-methoxy-1-methyl-1H-indol-3-yl)acetamide] to `COCCOCc1nc(C(F)(F)F)ccc1CNC(=O)C(C)c1cn(C)c2ccc(O)cc12` (stereo not drawn) [example compound 15, 2-(5-hydroxy-1-methyl-1H-indol-3-yl)-N-((2-((2-methoxyethoxy)methyl)-6-(trifluoromethyl)pyridin-3-yl)methyl)propanamide], the inhibition at 5 µM falls from 35% to 15%.

Same assay, conditions: functional (f) FLIPR assay, capsaicin (CAP) 100 nM; Ki from IC50 by Cheng-Prusoff equation

Going from `Cc1cccc(-c2nc(C(F)(F)F)ccc2CNC(=O)C(C)c2cn(C)c3ccc(O)cc23)c1` (stereo not drawn) [example compound 8, 2-(5-hydroxy-1-methyl-1H-indol-3-yl)-N-((2-(m-tolyl)-6-(trifluoromethyl)pyridin-3-yl)methyl)propanamide] to `CCNc1nc(C(F)(F)F)ccc1CNC(=O)C(C)c1cn(C)c2ccc(O)cc12` (stereo not drawn) [example compound 4, N-((2-(ethylamino)-6-(trifluoromethyl)pyridin-3-yl)methyl)-2-(5-hydroxy-1-methyl-1H-indol-3-yl)propanamide], the Ki rises from 1.4 nM to 44.2 nM (32-fold). The first binds more tightly here.

Going from `Cn1cc(CC(=O)NCc2ccc(C(F)(F)F)nc2N2CCOCC2)c2cc(O)ccc21` [example compound 20, 2-(5-hydroxy-1-methyl-1H-indol-3-yl)-N-((2-morpholino-6-(trifluoromethyl)pyridin-3-yl)methyl)acetamide] to `CC1CCN(c2nc(C(F)(F)F)ccc2CNC(=O)Cc2cn(C)c3ccc(O)cc23)CC1` [example compound 11, 2-(5-hydroxy-1-methyl-1H-indol-3-yl)-N-((2-(4-methylpiperidin-1-yl)-6-(trifluoromethyl)pyridin-3-yl)methyl)acetamide], the Ki falls from 16.5 nM to 0.3 nM (55-fold).

Compared with `CC(C(=O)NCc1ccc(C(F)(F)F)nc1C1CCOCC1)c1cn(C)c2ccc(O)cc12` (stereo not drawn) [example compound 9, 2-(5-hydroxy-1-methyl-1H-indol-3-yl)-N-((2-(tetrahydro-2H-pyran-4-yl)-6-(trifluoromethyl)pyridin-3-yl)methyl)propanamide], `CC(C(=O)NCc1ccc(C(F)(F)F)nc1C1CCCC1)c1cn(C)c2ccc(O)cc12` (stereo not drawn) [example compound 3, N-((2-cyclopentyl-6-(trifluoromethyl)pyridin-3-yl)methyl)-2-(5-hydroxy-1-methyl-1H-indol-3-yl)propanamide] is 9.5-fold lower in Ki: 45.7 nM for the first, 4.8 nM for the second. The second binds more tightly here.

First: CC1CCN(c2nc(C(F)(F)F)ccc2CNC(=O)Nc2nc3c([N+](=O)[O-])cccc3s2)CC1 [example compound 24, 1-((2-(4-methylpiperidin-1-yl)-6-(trifluoromethyl)pyridin-3-yl)methyl)-3-(4-nitrobenzo[d]thiazol-2-yl)urea]
Second: CC1CCN(c2nc(C(F)(F)F)ccc2CNC(=O)Nc2nc3ccccc3s2)CC1 [example compound 25, 1-(benzo[d]thiazol-2-yl)-3-((2-(4-methylpiperidin-1-yl)-6-(trifluoromethyl)pyridin-3-yl)methyl)urea]
The Ki of the first is 2.7-fold lower: 31.2 nM for the first, 84.9 nM for the second.

Compared with `COCCCc1nc(C(F)(F)F)ccc1CNC(=O)C(C)c1cn(C)c2ccc(O)cc12` (stereo not drawn) [example compound 12, 2-(5-hydroxy-1-methyl-1H-indol-3-yl)-N-((2-(3-methoxypropyl)-6-(trifluoromethyl)pyridin-3-yl)methyl)propanamide], `CCCCNc1nc(C(F)(F)F)ccc1CNC(=O)C(C)c1cn(C)c2ccc(O)cc12` (stereo not drawn) [example compound 6, N-((2-(butylamino)-6-(trifluoromethyl)pyridin-3-yl)methyl)-2-(5-hydroxy-1-methyl-1H-indol-3-yl)propanamide] is 5-fold lower in Ki: 81 nM for the first, 16.2 nM for the second.

Going from `CC(C(=O)NCc1ccc(C(F)(F)F)nc1N1CCCCC1)c1cn(C)c2ccc(O)cc12` (stereo not drawn) [example compound 13, 2-(5-hydroxy-1-methyl-1H-indol-3-yl)-N-((2-(piperidin-1-yl)-6-(trifluoromethyl)pyridin-3-yl)methyl)propanamide] to `CC(C(=O)NCc1ccc(C(F)(F)F)nc1N1CCOCC1)c1cn(C)c2ccc(O)cc12` (stereo not drawn) [example compound 10, 2-(5-hydroxy-1-methyl-1H-indol-3-yl)-N-((2-morpholino-6-(trifluoromethyl)pyridin-3-yl)methyl)propanamide], the Ki rises from 3.9 nM to 29.3 nM (7.5-fold). The first binds more tightly here.

`Cn1cc(CC(=O)NCc2ccc(C(F)(F)F)nc2C2CCCC2)c2cc(O)ccc21` [example compound 21, N-((2-cyclopentyl-6-(trifluoromethyl)pyridin-3-yl)methyl)-2-(5-hydroxy-1-methyl-1H-indol-3-yl)acetamide] and `CCNc1nc(C(F)(F)F)ccc1CNC(=O)Cc1cn(C)c2ccc(O)cc12` [example compound 18, N-((2-(ethylamino)-6-(trifluoromethyl)pyridin-3-yl)methyl)-2-(5-hydroxy-1-methyl-1H-indol-3-yl)acetamide] are within 1.5-fold of each other in Ki: 8 nM for the first, 8.2 nM for the second.

Compared with `CC1CCN(c2nc(C(F)(F)F)ccc2CNC(=O)C(C)c2cn(C)c3ccc(O)cc23)CC1` (stereo not drawn) [example compound 1, 2-(5-hydroxy-1-methyl-1H-indol-3-yl)-N-((2-(4-methylpiperidin-1-yl)-6-(trifluoromethyl)pyridin-3-yl)methyl)propanamide], `CC1CCN(c2nc(C(F)(F)F)ccc2CNC(=O)C(C)c2cn(C)c3ccccc23)CC1` (stereo not drawn) [example compound 14, 2-(1-methyl-1H-indol-3-yl)-N-((2-(4-methylpiperidin-1-yl)-6-(trifluoromethyl)pyridin-3-yl)methyl)propanamide] is 66-fold higher in Ki: 0.8 nM for the first, 53 nM for the second. The first binds more tightly here.

Compared with `CCCCNc1nc(C(F)(F)F)ccc1CNC(=O)C(C)c1cn(C)c2ccc(OC)cc12` (stereo not drawn) [example compound 19, N-((2-(butylamino)-6-(trifluoromethyl)pyridin-3-yl)methyl)-2-(5-methoxy-1-methyl-1H-indol-3-yl)propanamide], `CC(C(=O)NCc1ccc(C(F)(F)F)nc1OC1CCOCC1)c1cn(C)c2ccc(O)cc12` (stereo not drawn) [example compound 7, 2-(5-hydroxy-1-methyl-1H-indol-3-yl)-N-((2-((tetrahydro-2H-pyran-4-yl)oxy)-6-(trifluoromethyl)pyridin-3-yl)methyl)propanamide] is 2.6-fold lower in Ki: 76.4 nM for the first, 29.1 nM for the second.

`CC(C(=O)NCc1ccc(C(F)(F)F)nc1CC1CCCCC1)c1cn(C)c2ccccc12` (stereo not drawn) [example compound 22, N-((2-(cyclohexylmethyl)-6-(trifluoromethyl)pyridin-3-yl)methyl)-2-(1-methyl-1H-indol-3-yl)propanamide] and `COc1ccc2c(c1)c(CC(=O)NCc1ccc(C(F)(F)F)nc1N1CCC(C)CC1)cn2C` [example compound 2, 2-(5-methoxy-1-methyl-1H-indol-3-yl)-N-((2-(4-methylpiperidin-1-yl)-6-(trifluoromethyl)pyridin-3-yl)methyl)acetamide] are within 1.5-fold of each other in Ki: 35.9 nM for the first, 29.6 nM for the second.

Same assay, conditions: ne = did not show any effect in this assay; pAG = partial agonist

For `CC1CCN(c2nc(C(F)(F)F)ccc2CNC(=O)Nc2nc3ccccc3[nH]2)CC1` [example compound 26, 1-(1H-benzo[d]imidazol-2-yl)-3-((2-(4-methylpiperidin-1-yl)-6-(trifluoromethyl)pyridin-3-yl)methyl)urea], the “TRPV1 human (f) CAP, result in words” value was “ne”.
In the case of `CC1CCN(c2nc(C(F)(F)F)ccc2CNC(=O)Nc2nc3c([N+](=O)[O-])cccc3s2)CC1` [example compound 24, 1-((2-(4-methylpiperidin-1-yl)-6-(trifluoromethyl)pyridin-3-yl)methyl)-3-(4-nitrobenzo[d]thiazol-2-yl)urea], the “TRPV1 human (f) CAP, result in words” value is reported as “pAG”.
For `CC1CCN(c2nc(C(F)(F)F)ccc2CNC(=O)Nc2nc3c(Cl)cccc3s2)CC1` [example compound 23, 1-(4-chlorobenzo[d]thiazol-2-yl)-3-((2-(4-methylpiperidin-1-yl)-6-(trifluoromethyl)pyridin-3-yl)methyl)urea], the “TRPV1 human (f) CAP, result in words” value was “ne”.
`CCNc1nc(C(F)(F)F)ccc1CNC(=O)C(C)c1cn(C)c2ccc(OC)cc12` (stereo not drawn) [example compound 16, N-((2-(ethylamino)-6-(trifluoromethyl)pyridin-3-yl)methyl)-2-(5-methoxy-1-methyl-1H-indol-3-yl)propanamide] was tested, and the “TRPV1 human (f) CAP, result in words” value was “ne”.

Source: patent publication EP3130589A1, “HETEROCYCLIC AZA COMPOUNDS” (Grünenthal GmbH, priority 2015, dated 2017)
